Results published in ChEMBL document CHEMBL5050844 (2019).
Each block holds one compound with its values, some of them ahead of it.

How the values were obtained:
[1] = Induction of activation of human CD56+ CD3- NK cells co-cultured with human K562 cells in 1:1 ratio and assessed as increase in IFN-gamma secretion at 0.625 uM measured by ELISA assay; assay type: functional, Natural killer cell
[2] = Induction of anti-CD3/CD28 antibodies-stimulated human T cell activation at 4 uM assessed fold increase in CD25 expression measured by ELISA assay; assay type: functional, T cell line
[3] = Induction of anti-CD3 antibodies-stimulated human T cell activation at 1 uM assessed fold increase in IL-2 secretion measured by ELISA assay; assay type: functional, T cell line; further: reference of the scale not given here
[4] = Induction of anti-CD3 antibodies-stimulated human exhausted T cell activation assessed fold increase in IFN-gamma secretion measured by ELISA assay; assay type: functional, T cell line; further: reference of the scale not given here
[5] = Induction of anti-CD3 antibodies-stimulated human CD4+ T cell activation in immunocompetent mouse assessed fold increase in CD25 expression at 90 mg/kg, po administered twice a day; assay type: functional; further: reference of the scale not given here
[6] = Induction of anti-CD3 antibodies-stimulated human CD8+ T cell activation in immunocompetent mouse assessed fold increase in CD25 expression at 135 mg/kg, po administered twice a day; assay type: functional; further: reference of the scale not given here
[7] = Induction of anti-CD3 antibodies-stimulated human CD8+ T cell activation in immunocompetent mouse assessed fold increase in CD25 expression at 90 mg/kg, ip administered thrice a day; assay type: functional; further: reference of the scale not given here
[8] = Induction of anti-CD3/CD28 antibodies-stimulated human CD8+ T cell activation at 1.11 uM assessed fold increase in cell proliferation measured by flow cytometry analysis; assay type: functional, T cell line
[9] = Induction of anti-CD3/CD28 antibodies-stimulated human CD8+ T cell activation at 10 uM assessed fold increase in cell proliferation measured by flow cytometry analysis; assay type: functional, T cell line
[10] = Induction of anti-CD3/CD28 antibodies-stimulated human anergic T cell activation at 1.11 uM assessed fold increase in IFN-gamma secretion measured by ELISA assay; assay type: functional, T cell line
[11] = Induction of anti-CD3 antibodies-stimulated human exhausted CD4+ T cell activation assessed fold increase in CTLA4 expression measured by flow cytometry analysis; assay type: functional, T cell line; further: reference of the scale not given here
[12] = Induction of anti-CD3/CD28 antibodies-stimulated human CD8+ T cell activation at 10 uM assessed fold increase in CD69 expression measured by flow cytometry analysis; assay type: functional, T cell line
[13] = Induction of anti-CD3 antibodies-stimulated human T cell activation at 1.11 uM assessed fold increase in GM-CSF secretion measured by ELISA assay; assay type: functional, T cell line; further: reference of the scale not given here
[14] = Induction of anti-CD3 antibodies-stimulated human CD4+ T cell activation in immunocompetent mouse assessed fold increase in CD25 expression at 180 mg/kg, po administered twice a day; assay type: functional; further: reference of the scale not given here
[15] = Induction of anti-CD3 antibodies-stimulated human CD8+ T cell activation in immunocompetent mouse assessed fold increase in CD25 expression at 180 mg/kg, po administered twice a day; assay type: functional; further: reference of the scale not given here
[16] = Induction of anti-CD3 antibodies-stimulated human T cell activation at 10 uM assessed fold increase in TNF-alpha secretion measured by ELISA assay; assay type: functional, T cell line; further: reference of the scale not given here
[17] = Induction of anti-CD3/CD28 antibodies-stimulated human T cell activation at 1.11 uM assessed fold increase in GM-CSF secretion measured by ELISA assay; assay type: functional, T cell line
[18] = Induction of anti-CD3 antibodies-stimulated human CD8+ T cell activation in immunocompetent mouse assessed fold increase in CD25 expression at 90 mg/kg, po administered twice a day; assay type: functional; further: reference of the scale not given here
[19] = Induction of activation of human CD56+ CD3- NK cells co-cultured with human K562 cells in 1:1 ratio and assessed as increase in TNF-alpha secretion at 0.625 uM measured by ELISA assay; assay type: functional, Natural killer cell
[20] = molecular target: T1, E3 ubiquitin-protein ligase CBL-B (Homo sapiens, UniProt Q13191); experiment: Inhibition of N-terminal Avi-tagged human CBL-B (36 to 427 residues) incubated with 60 nM Src kinase for 1.5 hrs followed by incubation with fluorescently labeled UbcH5B-Ub for 1 hr and measured by TR-FRET assay; assay type: single protein
[21] = Induction of anti-CD3 antibodies-stimulated human CD4+ T cell activation in immunocompetent mouse assessed fold increase in CD25 expression at 135 mg/kg, po administered twice a day; assay type: functional; further: reference of the scale not given here
[22] = Induction of anti-CD3/CD28 antibodies-stimulated human T cell activation at 1 uM assessed fold increase in IL-2 secretion measured by ELISA assay; assay type: functional, T cell line
[23] = Induction of allogenic human T cell activation at 3 uM assessed fold increase in cell proliferation; assay type: functional, T cell line
[24] = molecular target: T1, E3 ubiquitin-protein ligase CBL-B; experiment: Binding affinity towards N-terminal biotinylated Avi-tagged human CBL-B (36 to 427 residues) measured by surface plasmon resonance assay

T1 sequence (Q13191 whole entry, the tested form may be a part): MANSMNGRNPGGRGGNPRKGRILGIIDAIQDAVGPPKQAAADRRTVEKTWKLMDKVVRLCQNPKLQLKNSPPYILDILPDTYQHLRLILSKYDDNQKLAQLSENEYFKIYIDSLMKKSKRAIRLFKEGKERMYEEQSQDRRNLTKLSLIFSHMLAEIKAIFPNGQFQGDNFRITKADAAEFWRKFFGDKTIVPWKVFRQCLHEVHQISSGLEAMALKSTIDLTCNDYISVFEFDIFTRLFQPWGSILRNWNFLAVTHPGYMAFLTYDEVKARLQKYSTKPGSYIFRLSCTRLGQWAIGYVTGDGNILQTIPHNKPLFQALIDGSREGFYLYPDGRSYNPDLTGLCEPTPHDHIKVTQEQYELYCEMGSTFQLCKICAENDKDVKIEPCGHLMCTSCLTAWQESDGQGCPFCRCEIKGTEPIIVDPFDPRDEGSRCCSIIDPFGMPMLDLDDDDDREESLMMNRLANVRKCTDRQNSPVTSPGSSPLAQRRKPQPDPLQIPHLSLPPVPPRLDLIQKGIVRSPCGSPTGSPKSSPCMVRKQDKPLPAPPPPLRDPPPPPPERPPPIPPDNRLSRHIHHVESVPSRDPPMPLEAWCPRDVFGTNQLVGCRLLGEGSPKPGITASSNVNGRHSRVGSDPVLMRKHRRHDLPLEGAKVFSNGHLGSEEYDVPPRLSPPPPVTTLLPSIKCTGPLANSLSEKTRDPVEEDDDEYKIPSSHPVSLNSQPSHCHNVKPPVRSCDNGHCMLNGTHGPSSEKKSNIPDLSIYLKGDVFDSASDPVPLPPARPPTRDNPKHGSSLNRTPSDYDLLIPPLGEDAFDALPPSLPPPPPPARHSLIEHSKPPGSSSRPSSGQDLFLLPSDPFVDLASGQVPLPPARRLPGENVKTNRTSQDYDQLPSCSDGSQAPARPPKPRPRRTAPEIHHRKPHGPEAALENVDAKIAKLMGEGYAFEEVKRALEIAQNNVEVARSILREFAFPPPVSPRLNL

Structure (SMILES): C[C@H](c1cc2c(c(C(F)(F)F)c1)CN(c1cccc(C3(Cc4nncn4C)COC3)c1)C2=O)N1CC[C@H](F)C1
- fold change (FC) [1]: 2.01
- fold change (FC) [2]: 1.31
- fold change (FC) [3]: >=0.201
- fold change (FC) [4]: >1.61
- fold change (FC) [5]: 1
- fold change (FC) [6]: 1
- fold change (FC) [7]: 1
- fold change (FC) [8]: 3.01
- fold change (FC) [9]: >4
- fold change (FC) [10]: >4.01
- fold change (FC) [11]: >1.61
- fold change (FC) [12]: 1.201
- fold change (FC) [13]: 1.51
- fold change (FC) [14]: 1
- fold change (FC) [15]: 1
- fold change (FC) [16]: 1.51
- fold change (FC) [17]: 2.01
- fold change (FC) [18]: 1
- fold change (FC) [19]: 2.01
- IC50 [20]: < 100 nM
- fold change (FC) [21]: 1
- fold change (FC) [22]: >=7.5
- fold change (FC) [23]: 2.01

Structure (SMILES): Cn1cnnc1[C@@H]1C[C@@H]1c1cccc(N2Cc3c(cccc3C(F)(F)F)C2=O)c1
- fold change (FC) [1]: 2.01
- fold change (FC) [2]: >=1.76
- fold change (FC) [3]: <=0.05
- fold change (FC) [4]: 1.41
- fold change (FC) [5]: 1
- fold change (FC) [6]: 1
- fold change (FC) [7]: 1
- fold change (FC) [8]: <=2
- fold change (FC) [9]: 2.01
- fold change (FC) [10]: <=2.5
- fold change (FC) [11]: <=1.4
- fold change (FC) [12]: 1.201
- fold change (FC) [13]: <=1.5
- fold change (FC) [14]: 2.01
- fold change (FC) [15]: 1
- fold change (FC) [16]: <=1.5
- fold change (FC) [17]: 1.51
- fold change (FC) [18]: 1
- fold change (FC) [19]: 1.01
- fold change (FC) [21]: 1.51
- fold change (FC) [22]: 1.01
- fold change (FC) [23]: <=2

Structure (SMILES): C[C@@H](c1cc2c(c(C(F)(F)F)c1)CN(c1cccc(C3(Cc4nncn4C)COC3)c1)C2=O)N1CC[C@H](F)C1
- fold change (FC) [1]: 2.01
- fold change (FC) [2]: 1.51
- fold change (FC) [3]: >=0.201
- fold change (FC) [4]: >1.61
- fold change (FC) [5]: 1
- fold change (FC) [6]: 2.01
- fold change (FC) [7]: 1
- fold change (FC) [8]: >4
- fold change (FC) [9]: >4
- fold change (FC) [10]: >4.01
- fold change (FC) [11]: <=1.4
- fold change (FC) [12]: 1.201
- fold change (FC) [13]: >4
- fold change (FC) [14]: 2.01
- fold change (FC) [15]: 1
- fold change (FC) [16]: 2.01
- fold change (FC) [17]: >4
- fold change (FC) [18]: 1.51
- fold change (FC) [19]: 2.01
- IC50 [20]: < 100 nM
- fold change (FC) [21]: 1.51
- fold change (FC) [22]: >=7.5
- fold change (FC) [23]: >3

Structure (SMILES): Cn1cnnc1CC1(c2cccc(NC(=O)c3nc4c(C(F)(F)F)cccc4[nH]3)c2)COC1
- fold change (FC) [1]: 2.01
- fold change (FC) [2]: 1.51
- fold change (FC) [3]: 0.101
- fold change (FC) [4]: 1.41
- fold change (FC) [8]: 3.01
- fold change (FC) [9]: 3.01
- fold change (FC) [10]: 2.51
- fold change (FC) [11]: >1.61
- fold change (FC) [12]: 1.201
- fold change (FC) [13]: <=1.5
- Kd [24]: < 100 nM
- fold change (FC) [16]: 1.51
- fold change (FC) [17]: 1.51
- fold change (FC) [19]: 1.01
- IC50 [20]: < 100 nM
- fold change (FC) [22]: 5
- fold change (FC) [23]: <=2

Structure (SMILES): Cn1cnnc1C(F)(F)C(C)(F)c1cccc(N2Cc3c(cc(CN4CC[C@@H](F)C4)cc3C(F)(F)F)C2=O)c1 (single isomer, unassigned)
- fold change (FC) [1]: 2.01
- fold change (FC) [2]: 1.51
- fold change (FC) [3]: >=0.201
- fold change (FC) [4]: >1.61
- fold change (FC) [8]: 2.01
- fold change (FC) [9]: >4
- fold change (FC) [10]: 2.51
- fold change (FC) [11]: >1.61
- fold change (FC) [12]: 1.201
- fold change (FC) [13]: 1.51
- Kd [24]: < 100 nM
- fold change (FC) [16]: 1.51
- fold change (FC) [17]: 2.01
- fold change (FC) [19]: 1.01
- IC50 [20]: < 100 nM
- fold change (FC) [22]: >=7.5
- fold change (FC) [23]: <=2

Now from value to compound, other results behind:

- Kd [24]: < 100 nM
- IC50 [20]: < 100 nM
Structure (SMILES): C[C@H](Cc1nncn1C)c1cccc(N2Cc3c(cc(CN4CC(O)C4)cc3C(F)(F)F)C2=O)c1
- fold change (FC) [1]: 2.01
- fold change (FC) [2]: 1.31
- fold change (FC) [3]: >=0.201
- fold change (FC) [4]: >1.61
- fold change (FC) [8]: <=2
- fold change (FC) [9]: 2.01
- fold change (FC) [10]: 2.51
- fold change (FC) [11]: >1.61
- fold change (FC) [12]: <=1.2
- fold change (FC) [13]: <=1.5
- fold change (FC) [16]: <=1.5
- fold change (FC) [17]: <=1.5
- fold change (FC) [19]: 1.01
- fold change (FC) [22]: >=7.5
- fold change (FC) [23]: <=2

- IC50 [20]: < 100 nM
Structure (SMILES): Cn1cnnc1CC1(c2cccc(N3Cc4c(cc(CN5CC(F)C5)cc4C(F)(F)F)C3=O)c2)COC1
- fold change (FC) [1]: 2.01
- fold change (FC) [2]: 1.51
- fold change (FC) [3]: 0.151
- fold change (FC) [4]: >1.61
- fold change (FC) [5]: 1
- fold change (FC) [6]: <1
- fold change (FC) [7]: 1
- fold change (FC) [8]: 3.01
- fold change (FC) [9]: >4
- fold change (FC) [10]: 2.51
- fold change (FC) [11]: >1.61
- fold change (FC) [12]: 1.201
- fold change (FC) [13]: 2.01
- fold change (FC) [14]: 1
- fold change (FC) [15]: <1
- fold change (FC) [16]: 1.51
- fold change (FC) [17]: 2.01
- fold change (FC) [18]: 1
- fold change (FC) [19]: 1.01
- fold change (FC) [21]: 1
- fold change (FC) [22]: >=7.5
- fold change (FC) [23]: 2.01

- Kd [24]: < 100 nM
- IC50 [20]: < 100 nM
Structure (SMILES): C[C@H](Cc1nncn1C)c1cccc(N2Cc3c(cc(CN4CC(C)(O)C4)cc3C(F)(F)F)C2=O)c1
- fold change (FC) [1]: 2.01
- fold change (FC) [2]: 1.31
- fold change (FC) [3]: 0.151
- fold change (FC) [4]: >1.61
- fold change (FC) [8]: 3.01
- fold change (FC) [9]: >4
- fold change (FC) [10]: >4.01
- fold change (FC) [11]: >1.61
- fold change (FC) [12]: 1.201
- fold change (FC) [13]: 2.01
- fold change (FC) [16]: 1.51
- fold change (FC) [17]: 2.01
- fold change (FC) [19]: 1.01
- fold change (FC) [22]: >=7.5
- fold change (FC) [23]: <=2
